Experimental data: PubChem BioAssay (NCI)
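Here, GI50 denotes the concentration required for 50% inhibition of growth. TGI: total growth inhibition.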

Assays:
Assay in all cases: NCI-60 cell line screen, 384-well format
MDA-MB-468 breast = system: MDA-MB-468 breast
PC-3 prostate = system: PC-3 prostate
OVCAR-5 ovarian = system: OVCAR-5 ovarian
TK-10 renal = system: TK-10 renal
SN12C renal = system: SN12C renal
A549 NSCLC = system: A549 NSCLC
CAKI-1 renal = system: CAKI-1 renal
UACC-257 melanoma = system: UACC-257 melanoma
SR leukemia = system: SR leukemia
RXF 393 renal = system: RXF 393 renal
SK-MEL-5 melanoma = system: SK-MEL-5 melanoma
NCI/ADR-RES ovarian = system: NCI/ADR-RES ovarian
SW-620 colon = system: SW-620 colon
NCI-H460 NSCLC = system: NCI-H460 NSCLC
HOP-92 NSCLC = system: HOP-92 NSCLC
HCT-15 colon = system: HCT-15 colon
OVCAR-4 ovarian = system: OVCAR-4 ovarian
NCI-H23 lung = system: NCI-H23 lung
HL-60(TB) leukemia = system: HL-60(TB) leukemia
NCI-H226 lung = system: NCI-H226 lung
MOLT-4 leukemia = system: MOLT-4 leukemia
BT-549 breast = system: BT-549 breast
OVCAR-3 ovarian = system: OVCAR-3 ovarian
NCI-H522 lung = system: NCI-H522 lung
SF-295 CNS = system: SF-295 CNS
NCI-H322M lung = system: NCI-H322M lung
SK-MEL-28 melanoma = system: SK-MEL-28 melanoma
T-47D breast = system: T-47D breast
SNB-19 CNS = system: SNB-19 CNS
RPMI-8226 leukemia = system: RPMI-8226 leukemia
HOP-62 NSCLC = system: HOP-62 NSCLC
DU-145 prostate = system: DU-145 prostate
LOX IMVI melanoma = system: LOX IMVI melanoma
HCT-116 colon = system: HCT-116 colon
CCRF-CEM leukemia = system: CCRF-CEM leukemia
K-562 leukemia = system: K-562 leukemia
OVCAR-8 ovarian = system: OVCAR-8 ovarian
MALME-3M melanoma = system: MALME-3M melanoma
ACHN renal = system: ACHN renal
UO-31 renal = system: UO-31 renal
MCF7 breast = system: MCF7 breast
KM12 colon = system: KM12 colon
A498 renal = system: A498 renal
COLO 205 colon = system: COLO 205 colon
U251 glioblastoma = system: U251 glioblastoma
SF-539 CNS = system: SF-539 CNS
EKVX NSCLC = system: EKVX NSCLC
HS 578T breast = system: HS 578T breast
MDA-MB-231 breast = system: MDA-MB-231 breast
SF-268 CNS = system: SF-268 CNS
786-0 renal = system: 786-0 renal
UACC-62 melanoma = system: UACC-62 melanoma
HCC-2998 colon = system: HCC-2998 colon
SNB-75 CNS = system: SNB-75 CNS
SK-OV-3 ovarian = system: SK-OV-3 ovarian
M14 melanoma = system: M14 melanoma
HT29 colon = system: HT29 colon
IGROV1 ovarian = system: IGROV1 ovarian

Cc1nc(-c2nc(-c3ccc(OC(F)(F)F)cc3)no2)nn1Cc1cccc(N2CCC(S(C)(=O)=O)CC2)c1
GI50 (MDA-MB-468 breast): < 0.01 µM
TGI (MDA-MB-468 breast): < 0.01 µM
GI50 (PC-3 prostate): 17.3 µM
TGI (PC-3 prostate): > 100 µM
GI50 (OVCAR-5 ovarian): 86 µM
TGI (OVCAR-5 ovarian): > 100 µM
GI50 (TK-10 renal): 8.15 µM
TGI (TK-10 renal): 78.8 µM
GI50 (SN12C renal): 20.4 µM
TGI (SN12C renal): > 100 µM
GI50 (A549 NSCLC): 2.61 µM
TGI (A549 NSCLC): 33.9 µM
GI50 (CAKI-1 renal): 4.66 µM
TGI (CAKI-1 renal): 71.1 µM
GI50 (UACC-257 melanoma): 0.0565 µM
TGI (UACC-257 melanoma): 0.827 µM
GI50 (SR leukemia): < 0.01 µM
TGI (SR leukemia): < 0.01 µM
GI50 (RXF 393 renal): < 0.01 µM
TGI (RXF 393 renal): < 0.01 µM
GI50 (SK-MEL-5 melanoma): < 0.01 µM
TGI (SK-MEL-5 melanoma): 11.8 µM
GI50 (NCI/ADR-RES ovarian): < 0.01 µM
TGI (NCI/ADR-RES ovarian): 0.0515 µM
GI50 (SW-620 colon): 11.5 µM
TGI (SW-620 colon): > 100 µM
GI50 (NCI-H460 NSCLC): < 0.01 µM
TGI (NCI-H460 NSCLC): 0.0183 µM
GI50 (HOP-92 NSCLC): 0.567 µM
TGI (HOP-92 NSCLC): 46.2 µM
GI50 (HCT-15 colon): 6.19 µM
TGI (HCT-15 colon): > 100 µM
GI50 (OVCAR-4 ovarian): 0.292 µM
TGI (OVCAR-4 ovarian): 24.8 µM
GI50 (NCI-H23 lung): < 0.01 µM
TGI (NCI-H23 lung): < 0.01 µM
GI50 (HL-60(TB) leukemia): 0.156 µM
TGI (HL-60(TB) leukemia): 0.29 µM
GI50 (NCI-H226 lung): 0.664 µM
TGI (NCI-H226 lung): 39.5 µM
GI50 (MOLT-4 leukemia): 0.0271 µM
TGI (MOLT-4 leukemia): 0.208 µM
GI50 (BT-549 breast): 2.1 µM
TGI (BT-549 breast): 26.2 µM
GI50 (OVCAR-3 ovarian): 5.09 µM
TGI (OVCAR-3 ovarian): > 100 µM
GI50 (NCI-H522 lung): 1.08 µM
TGI (NCI-H522 lung): 17.6 µM
GI50 (SF-295 CNS): 0.0932 µM
TGI (SF-295 CNS): 37 µM
GI50 (NCI-H322M lung): 0.0149 µM
TGI (NCI-H322M lung): 16.4 µM
GI50 (SK-MEL-28 melanoma): 28 µM
TGI (SK-MEL-28 melanoma): 80.9 µM
GI50 (T-47D breast): < 0.01 µM
TGI (T-47D breast): 23.4 µM
GI50 (SNB-19 CNS): 47.2 µM
TGI (SNB-19 CNS): > 100 µM
GI50 (RPMI-8226 leukemia): < 0.01 µM
TGI (RPMI-8226 leukemia): 1.03 µM
GI50 (HOP-62 NSCLC): < 0.01 µM
TGI (HOP-62 NSCLC): 20.6 µM
GI50 (DU-145 prostate): 29.4 µM
TGI (DU-145 prostate): > 100 µM
GI50 (LOX IMVI melanoma): 0.0479 µM
TGI (LOX IMVI melanoma): > 100 µM
GI50 (HCT-116 colon): < 0.01 µM
TGI (HCT-116 colon): 2.82 µM
GI50 (CCRF-CEM leukemia): < 0.01 µM
TGI (CCRF-CEM leukemia): 3.59 µM
GI50 (K-562 leukemia): < 0.01 µM
TGI (K-562 leukemia): > 100 µM
GI50 (OVCAR-8 ovarian): < 0.01 µM
TGI (OVCAR-8 ovarian): 19.6 µM
GI50 (MALME-3M melanoma): 23.6 µM
TGI (MALME-3M melanoma): 56.6 µM
GI50 (ACHN renal): 10.4 µM
TGI (ACHN renal): 34.6 µM
GI50 (UO-31 renal): 7.92 µM
TGI (UO-31 renal): 36.6 µM
GI50 (MCF7 breast): 0.221 µM
TGI (MCF7 breast): 50.8 µM

Cc1cc(Nc2ncc3c(n2)N(C)C(=O)N(c2cc(NC(=O)c4cccc(C(F)(F)F)c4)ccc2C)C3)n(C)n1
GI50 (KM12 colon): 0.513 µM
TGI (KM12 colon): > 100 µM
GI50 (A498 renal): 0.0142 µM
TGI (A498 renal): 0.105 µM
GI50 (MDA-MB-468 breast): 0.0251 µM
TGI (MDA-MB-468 breast): 0.0982 µM
GI50 (PC-3 prostate): 4.25 µM
TGI (PC-3 prostate): > 100 µM
GI50 (OVCAR-5 ovarian): 0.0342 µM
TGI (OVCAR-5 ovarian): 0.254 µM
GI50 (COLO 205 colon): < 0.01 µM
TGI (COLO 205 colon): 0.128 µM
GI50 (U251 glioblastoma): 0.0258 µM
TGI (U251 glioblastoma): 1.2 µM
GI50 (TK-10 renal): 0.0288 µM
TGI (TK-10 renal): 0.12 µM
GI50 (SN12C renal): 0.0111 µM
TGI (SN12C renal): 0.0593 µM
GI50 (A549 NSCLC): 0.0179 µM
TGI (A549 NSCLC): 0.162 µM
GI50 (CAKI-1 renal): < 0.01 µM
TGI (CAKI-1 renal): 0.0205 µM
GI50 (UACC-257 melanoma): 0.0338 µM
TGI (UACC-257 melanoma): 0.311 µM
GI50 (SF-539 CNS): 0.0726 µM
TGI (SF-539 CNS): 0.577 µM
GI50 (RXF 393 renal): < 0.01 µM
TGI (RXF 393 renal): 0.0871 µM
GI50 (SK-MEL-5 melanoma): 0.0323 µM
TGI (SK-MEL-5 melanoma): 8.42 µM
GI50 (EKVX NSCLC): 0.0408 µM
TGI (EKVX NSCLC): 0.305 µM
GI50 (HS 578T breast): 0.0156 µM
TGI (HS 578T breast): 0.0543 µM
GI50 (MDA-MB-231 breast): 0.0113 µM
TGI (MDA-MB-231 breast): 0.0871 µM
GI50 (NCI/ADR-RES ovarian): 1.65 µM
TGI (NCI/ADR-RES ovarian): 3.24 µM
GI50 (SW-620 colon): 0.0699 µM
TGI (SW-620 colon): 1.28 µM
GI50 (NCI-H460 NSCLC): 0.052 µM
TGI (NCI-H460 NSCLC): > 100 µM
GI50 (HOP-92 NSCLC): 0.0173 µM
TGI (HOP-92 NSCLC): 0.0746 µM
GI50 (HCT-15 colon): 0.224 µM
TGI (HCT-15 colon): 1.39 µM
GI50 (NCI-H23 lung): 0.0244 µM
TGI (NCI-H23 lung): 0.189 µM
GI50 (SF-268 CNS): < 0.01 µM
TGI (SF-268 CNS): 0.0136 µM
GI50 ([…]-0 renal): 0.0401 µM
TGI (786-0 renal): 0.302 µM
GI50 (HL-60(TB) leukemia): 0.0216 µM
TGI (HL-60(TB) leukemia): 0.107 µM
GI50 (MOLT-4 leukemia): 0.0221 µM
TGI (MOLT-4 leukemia): 1.36 µM
GI50 (BT-549 breast): 0.0199 µM
TGI (BT-549 breast): 0.0733 µM
GI50 (OVCAR-3 ovarian): 0.0243 µM
TGI (OVCAR-3 ovarian): 0.198 µM
GI50 (NCI-H522 lung): < 0.01 µM
TGI (NCI-H522 lung): 0.0313 µM
GI50 (SF-295 CNS): 1.42 µM
TGI (SF-295 CNS): > 100 µM
GI50 (NCI-H322M lung): 0.022 µM
TGI (NCI-H322M lung): 0.137 µM
GI50 (SK-MEL-28 melanoma): 0.0162 µM
TGI (SK-MEL-28 melanoma): 0.083 µM
GI50 (T-47D breast): 0.0257 µM
TGI (T-47D breast): 0.0751 µM
GI50 (UACC-62 melanoma): < 0.01 µM
TGI (UACC-62 melanoma): 0.015 µM
GI50 (SNB-19 CNS): 0.199 µM
TGI (SNB-19 CNS): > 100 µM
GI50 (RPMI-8226 leukemia): 0.286 µM
TGI (RPMI-8226 leukemia): 1.79 µM
GI50 (HOP-62 NSCLC): 0.0876 µM
TGI (HOP-62 NSCLC): 0.534 µM
GI50 (HCC-2998 colon): 0.0458 µM
TGI (HCC-2998 colon): 1.09 µM
GI50 (SNB-75 CNS): 0.0189 µM
TGI (SNB-75 CNS): 0.0779 µM
GI50 (SK-OV-3 ovarian): < 0.01 µM
TGI (SK-OV-3 ovarian): 0.0429 µM
GI50 (LOX IMVI melanoma): < 0.01 µM
TGI (LOX IMVI melanoma): 0.011 µM
GI50 (HCT-116 colon): 0.0272 µM
TGI (HCT-116 colon): 0.147 µM
GI50 (CCRF-CEM leukemia): 1.34 µM
TGI (CCRF-CEM leukemia): 3.42 µM
GI50 (K-562 leukemia): < 0.01 µM
GI50 (OVCAR-8 ovarian): 0.0341 µM
TGI (OVCAR-8 ovarian): 0.337 µM
GI50 (MALME-3M melanoma): < 0.01 µM
GI50 (M14 melanoma): < 0.01 µM
TGI (M14 melanoma): 0.0288 µM
GI50 (HT29 colon): 0.0164 µM
TGI (HT29 colon): 0.312 µM
GI50 (UO-31 renal): 0.134 µM
TGI (UO-31 renal): 0.312 µM
GI50 (MCF7 breast): 0.88 µM
TGI (MCF7 breast): > 100 µM
GI50 (IGROV1 ovarian): < 0.01 µM
TGI (IGROV1 ovarian): 0.0346 µM
